Results published in US11174268B2, “Benzenesulfonamide compouds and their use as therapeutic agents” (Xenon Pharmaceuticals Inc., priority 2016, dated 2021).
Counter-ions that a name gives are not always drawn.

Key:
NaV1.6 = NaV1.6 (Homo sapiens (Human), UniProt Q9UQD0); test: Sodium Influx Assay (Flux), NaV1.6; format: cell-based; details: Trex HEK293 cells, ANG2 dye, inactivated state;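 also: Tetracycline-induced cells, compounds applied for one hour at room temperature with modulators holding channels open, IC50 from percent inhibition of sodium influx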
NaV1.1 = NaV1.1 (Homo sapiens (Human), UniProt P35498); test: Sodium Influx Assay (Flux), NaV1.1; format: cell-based; details: Trex HEK293 cells, ANG2 dye, inactivated state;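 also: channels co-expressed with human β1 subunit and held open by modulators, cells exposed to compounds for one hour at room temperature, IC50 from percent inhibition of influx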
NaV1.5 = NaV1.5 (Homo sapiens (Human), UniProt Q14524); test: Sodium Influx Assay (Flux), NaV1.5; details: read-out: Flux NaV1.5 IC50; Trex HEK293 cells, ANG2 dye, inactivated state
Sequence of NaV1.5 (Q14524 other isoform, or with tags, fused parts or gaps): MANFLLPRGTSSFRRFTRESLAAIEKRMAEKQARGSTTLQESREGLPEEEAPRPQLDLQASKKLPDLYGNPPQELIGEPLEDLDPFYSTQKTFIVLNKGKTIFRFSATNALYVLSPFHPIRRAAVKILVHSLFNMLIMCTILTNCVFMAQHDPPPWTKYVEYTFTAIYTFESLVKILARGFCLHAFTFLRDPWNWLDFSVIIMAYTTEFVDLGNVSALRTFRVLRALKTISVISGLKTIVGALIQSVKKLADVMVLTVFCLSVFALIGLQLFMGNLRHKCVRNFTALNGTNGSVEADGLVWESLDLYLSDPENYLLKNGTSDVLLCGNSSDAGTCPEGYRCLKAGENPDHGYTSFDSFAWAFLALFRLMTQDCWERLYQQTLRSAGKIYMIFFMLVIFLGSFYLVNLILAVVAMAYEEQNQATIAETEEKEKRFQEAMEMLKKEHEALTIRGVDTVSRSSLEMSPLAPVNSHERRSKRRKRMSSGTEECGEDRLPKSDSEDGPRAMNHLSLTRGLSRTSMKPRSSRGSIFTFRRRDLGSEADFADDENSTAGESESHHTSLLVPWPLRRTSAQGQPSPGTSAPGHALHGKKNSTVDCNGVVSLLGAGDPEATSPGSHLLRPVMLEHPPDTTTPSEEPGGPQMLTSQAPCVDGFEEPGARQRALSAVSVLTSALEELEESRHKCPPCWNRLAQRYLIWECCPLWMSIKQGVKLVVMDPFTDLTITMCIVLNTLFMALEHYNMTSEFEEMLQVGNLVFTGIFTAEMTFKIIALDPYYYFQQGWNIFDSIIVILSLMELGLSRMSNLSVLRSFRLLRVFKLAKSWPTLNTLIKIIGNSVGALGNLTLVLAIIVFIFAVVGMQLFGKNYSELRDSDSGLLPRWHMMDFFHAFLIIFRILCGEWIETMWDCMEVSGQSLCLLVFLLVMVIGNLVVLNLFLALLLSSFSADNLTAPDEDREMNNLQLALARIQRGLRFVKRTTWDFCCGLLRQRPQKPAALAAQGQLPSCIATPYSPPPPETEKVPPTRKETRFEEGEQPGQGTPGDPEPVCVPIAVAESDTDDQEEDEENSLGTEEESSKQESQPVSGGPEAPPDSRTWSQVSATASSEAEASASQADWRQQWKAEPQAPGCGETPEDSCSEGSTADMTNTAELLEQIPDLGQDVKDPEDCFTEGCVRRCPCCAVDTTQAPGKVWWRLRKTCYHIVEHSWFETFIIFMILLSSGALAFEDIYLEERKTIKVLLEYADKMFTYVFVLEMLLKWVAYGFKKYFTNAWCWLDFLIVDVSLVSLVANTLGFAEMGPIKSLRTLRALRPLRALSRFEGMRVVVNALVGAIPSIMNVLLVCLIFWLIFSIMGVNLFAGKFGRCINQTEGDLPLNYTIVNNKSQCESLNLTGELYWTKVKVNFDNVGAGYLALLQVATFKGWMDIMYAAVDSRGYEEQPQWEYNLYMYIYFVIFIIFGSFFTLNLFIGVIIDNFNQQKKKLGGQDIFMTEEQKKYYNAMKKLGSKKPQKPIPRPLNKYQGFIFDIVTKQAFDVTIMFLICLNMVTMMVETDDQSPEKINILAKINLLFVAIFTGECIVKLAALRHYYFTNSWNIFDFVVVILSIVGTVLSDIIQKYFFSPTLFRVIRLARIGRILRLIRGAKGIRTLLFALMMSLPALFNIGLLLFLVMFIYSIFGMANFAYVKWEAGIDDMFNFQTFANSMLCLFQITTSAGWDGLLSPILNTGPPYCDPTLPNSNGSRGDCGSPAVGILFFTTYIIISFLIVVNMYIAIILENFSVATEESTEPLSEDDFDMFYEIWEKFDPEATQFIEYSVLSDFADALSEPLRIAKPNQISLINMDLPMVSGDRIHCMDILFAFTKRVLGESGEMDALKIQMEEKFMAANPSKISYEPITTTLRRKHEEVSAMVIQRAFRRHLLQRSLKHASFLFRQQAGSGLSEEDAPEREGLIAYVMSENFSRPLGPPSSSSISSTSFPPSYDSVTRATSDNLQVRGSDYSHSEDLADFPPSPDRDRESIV

IC50 (NaV1.6)	IC50 (NaV1.1)	SMILES	IC50 (NaV1.5)
2.36 µM	26.8 µM	O=S(=O)(Nc1ccncn1)c1cc(Cl)c(NC2(c3cc(F)ccc3F)CC2)cc1F [Example 241, 5-chloro-4-((1-(2,5-difluorophenyl)cyclopropyl)amino)-2-fluoro-N-(pyrimidin-4-yl)benzenesulfonamide]	30 µM
1.95 µM	30 µM	O=S(=O)(Nc1ccncn1)c1cc(Cl)c(NC2(c3ccccc3F)CC2)cc1F [Example 242, 5-chloro-2-fluoro-4-((1-(2-fluorophenyl)cyclopropyl)amino)-N-(pyrimidin-4-yl)benzenesulfonamide]	30 µM
4.28 µM	30 µM	Cc1cc(NS(=O)(=O)c2cc(Cl)c(N[C@@H](C)c3ccccc3Cl)cc2F)ncn1 [Example 244, (S)-5-chloro-4-((1-(2-chlorophenyl)ethyl)amino)-2-fluoro-N-(6-methylpyrimidin-4-yl)benzenesulfonamide]	22.2 µM
5.38 µM	10.5 µM	C[C@H](Nc1cc(F)c(S(=O)(=O)Nc2ccnc(C(F)(F)F)n2)cc1Cl)c1ccccc1Cl [Example 245, (S)-5-chloro-4-((1-(2-chlorophenyl)ethyl)amino)-2-fluoro-N-(2-(trifluoromethyl)pyrimidin-4-yl)benzenesulfonamide]	6.55 µM
0.431 µM	21.4 µM	COC1CN(Cc2cccc(F)c2CNc2cc(F)c(S(=O)(=O)Nc3cscn3)cc2Cl)C1 [Example 248, 5-chloro-2-fluoro-4-((2-fluoro-6-((3-methoxyazetidin-1-yl)methyl)benzyl)amino)-N-(thiazol-4-yl)benzenesulfonamide 2,2,2-trifluoroacetate]	26.5 µM
0.163 µM	30 µM	CN(C)Cc1cccc(F)c1CNc1cc(F)c(S(=O)(=O)Nc2cscn2)cc1Cl [Example 249, 5-chloro-4-((2-((dimethylamino)methyl)-6-fluorobenzyl)amino)-2-fluoro-N-(thiazol-4-yl)benzenesulfonamide 2,2,2-trifluoroacetate]	30 µM
9.06 µM	23.6 µM	O=S(=O)(Nc1cscn1)c1cc(Cl)c(NCc2c(F)cccc2CN2CCOCC2)cc1F [Example 250, 5-chloro-2-fluoro-4-((2-fluoro-6-(morpholinomethyl)benzyl)amino)-N-(thiazol-4-yl)benzenesulfonamide]	30 µM
3.71 µM	8.68 µM	O=S(=O)(Nc1cscn1)c1cc(Cl)c(NCc2c(F)cccc2CN2CCC(F)(F)CC2)cc1F [Example 251, 5-chloro-4-((2-((4,4-difluoropiperidin-1-yl)methyl)-6-fluorobenzyl)amino)-2-fluoro-N-(thiazol-4-yl)benzenesulfonamide]	3.35 µM
2.1 µM	20 µM	C[C@H](Nc1cc(F)c(S(=O)(=O)Nc2cscn2)cc1Cl)c1cccc(CN(C)C)c1 [Example 253, (S)-5-chloro-4-((1-(3-((dimethylamino)methyl)phenyl)ethyl)amino)-2-fluoro-N-(thiazol-4-yl)benzenesulfonamide formate]	13.1 µM
9.44 µM	14.1 µM	C[C@@H](Nc1cc(F)c(S(=O)(=O)Nc2cscn2)cc1Cl)c1cccc(CN(C)C)c1 [Example 254, (R)-5-chloro-4-((1-(3-((dimethylamino)methyl)phenyl)ethyl)amino)-2-fluoro-N-(thiazol-4-yl)benzenesulfonamide formate]	3.62 µM
1.22 µM	8.82 µM	C[C@H](Nc1cc(F)c(S(=O)(=O)Nc2cscn2)cc1Cl)c1cc(CN2CCCCC2)ccc1F [Example 256, (S)-5-chloro-2-fluoro-4-((1-(2-fluoro-5-(piperidin-1-ylmethyl)phenyl)ethyl)amino)-N-(thiazol-4-yl)benzenesulfonamide formate]	6.97 µM
3.69 µM	30 µM	O=S(=O)(Nc1ccon1)c1cc(Cl)c(NCc2ccccc2CN2CCC2)cc1F [Example 258, 4-((2-(azetidin-1-ylmethyl)benzyl)amino)-5-chloro-2-fluoro-N-(isoxazol-3-yl)benzenesulfonamide]	30 µM
1.37 µM	29.2 µM	O=S(=O)(Nc1ccon1)c1c(F)cc(NCc2ccccc2CN2CCC2)cc1F [Example 259, 4-((2-(azetidin-1-ylmethyl)benzyl)amino)-2,6-difluoro-N-(isoxazol-3-yl)benzenesulfonamide]	30 µM
1.88 µM	30 µM	O=S(=O)(Nc1cccnn1)c1cc(Cl)c(NCc2c(F)cccc2CN2CCC2)cc1F [Example 260, 4-((2-(azetidin-1-ylmethyl)-6-fluorobenzyl)amino)-5-chloro-2-fluoro-N-(pyridazin-3-yl)benzenesulfonamide]	30 µM
0.146 µM	28.9 µM	O=S(=O)(Nc1cscn1)c1cc(Cl)c(NCc2ccccc2CCN2CCC2)cc1F [Example 261, 4-((2-(2-(azetidin-1-yl)ethyl)benzyl)amino)-5-chloro-2-fluoro-N-(thiazol-4-yl)benzenesulfonamide formate]	26.3 µM
1.42 µM	8.29 µM	O=S(=O)(Nc1cscn1)c1cc(Cl)c(NCc2cc(CCN3CCC3)ccc2F)cc1F [Example 262, 4-((5-(2-(azetidin-1-yl)ethyl)-2-fluorobenzyl)amino)-5-chloro-2-fluoro-N-(thiazol-4-yl)benzenesulfonamide formate]	7.32 µM
1.02 µM	7.71 µM	O=S(=O)(Nc1cscn1)c1cc(Cl)c(NCc2cc(CCN3CC(F)C3)ccc2F)cc1F [Example 263, 5-chloro-2-fluoro-4-((2-fluoro-5-(2-(3-fluoroazetidin-1-yl)ethyl)benzyl)amino)-N-(thiazol-4-yl)benzenesulfonamide formate]	4.78 µM
30 µM	30 µM	O=S(=O)(Nc1cscn1)c1cc(Cl)c(N[C@H]2C[C@H](N3CCC3)c3ccccc32)cc1F [Example 264, 4-(((1S,3S)-3-(azetidin-1-yl)-2,3-dihydro-1H-inden-1-yl)amino)-5-chloro-2-fluoro-N-(thiazol-4-yl)benzenesulfonamide formate]	30 µM
0.959 µM	3.58 µM	C[C@H](Nc1cc(F)c(S(=O)(=O)Nc2ncc(Cl)s2)cc1Cl)c1ccccc1F [Example 267, (S)-5-chloro-2-fluoro-4-((1-(2-fluorophenyl)ethyl)amino)-N-(5-chlorothiazol-2-yl)benzenesulfonamide]	6.96 µM
0.584 µM	2.78 µM	Cc1cc(N[C@@H](C)c2ccccc2F)c(Cl)cc1S(=O)(=O)Nc1nccs1 [Example 269, (S)-5-chloro-4-((1-(2-fluorophenyl)ethyl)amino)-2-methyl-N-(thiazol-2-yl)benzenesulfonamide]	6.72 µM

SMILES	IC50 (NaV1.6)	IC50 (NaV1.1)	IC50 (NaV1.5)
O=S(=O)(Nc1cscn1)c1c(F)cc(NCc2c(F)cccc2CN2CC3(CCC3)C2)cc1F [Example 252, 4-((2-((2-azaspiro[3.3]heptan-2-yl)methyl)-6-fluorobenzyl)amino)-2,6-difluoro-N-(thiazol-4-yl)benzenesulfonamide formate]	0.036 µM	9.96 µM	12.6 µM
